“And” between values parts separate entries of the source, which are not always exact repeats. Identical values can stand only once.
Key:
hEPO protein expression = hEPO protein expression in vivo after systemic administration of LNPs
Description: In order to monitor how effectively various nanoparticle compositions deliver therapeutic and/or prophylactic agents to targeted cells, different nanoparticle compositions including a particular therapeutic and/or prophylactic agent (for example, a modified or naturally occurring RNA such as an mRNA) are prepared and administered to animal populations. Animals (e.g., mice, rats, or non-human primates) are intravenously, intramuscularly, intraarterially, or intratumorally administered a single dose including a nanoparticle composition comprising a lipid of the disclosure and an mRNA expressing a protein, e.g., human erythropoietin (hEPO) or luciferase. A control composition including PBS may also be employed.
Upon administration of nanoparticle compositions to an animal, dose delivery profiles, dose responses, and toxicity of particular formulations and doses thereof can be measured by enzyme-linked immunosorbent assays (ELISA), bioluminescent imaging, or other methods. For nanoparticle compositions including mRNA, time courses of protein expression can also be evaluated. Samples collected from the animals for evaluation may include blood, sera, and tissue (for example, muscle tissue from the site of an intramuscular injection and internal tissue); sample collection may involve sacrifice of the animals.
ELISA test kits may provide hEPO concentrations in milli International Units per mL (mIU/mL), e.g., per mL of tested serum. Typically, the EPO concentration of unknown sample is calculated from a calibration curve. Standards (used for the calibration curve) are calibrated according to the 2. IRP WHO preparation. In some embodiments, mIU/mL corresponds to […]. Nanoparticle compositions including mRNA are useful in the evaluation of the efficacy and usefulness of various formulations for the delivery of therapeutic and/or prophylactic agents. Higher levels of protein expression induced by administration of a composition including an mRNA will be indicative of higher mRNA translation and/or nanoparticle composition mRNA delivery efficiencies. As the non-RNA components are not thought to affect translational machineries themselves, a higher level of protein expression is likely indicative of a higher efficiency of delivery of the therapeutic and/or prophylactic agent by a given nanoparticle composition relative to other nanoparticle compositions or the absence thereof.
In some embodiments, an in vivo expression assay may be used to assess potency of expression of lipids of the disclosure. In some embodiments, the protein expression (hEPO) may be measured in mice following administration of a nanoparticle comprising a lipid of the disclosure (e.g., a loaded LNP). In some embodiments, lipid nanoparticles of the instant disclosure may be intravenously administered to mice (e.g., CD-1 mice).
In some embodiments, the concentration of hEPO in serum may be tested after administration (e.g., about six hours after injection). In some embodiments, residual levels of the lipids of the disclosure in organs or tissue of the subject after administration (e.g., 6 h, 12 h, 18 h, 24 h, 36h, or 48 h after administration) are measured. In some embodiments, the residual levels of the lipids of the disclosure in the liver are measured. In some embodiments, an in vitro expression assay may be used to assess nanoparticles of the disclosure. In some embodiments, cells (e.g., HeLa) may be plated in an imaging plate (e.g., poly-D-lysine coated) and cultured in serum (e.g., human serum, mouse serum, cynomolgus monkey serum or fetal bovine serum). In some embodiments, lipid nanoparticles of the disclosure comprising an mRNA expressing fluorescent protein (e.g., green fluorescent protein (GFP)) and a fluorescent lipid (e.g., rhodamine-DOPE) may be added to the plate and the plate imaged for uptake and expression. In some embodiments, expression may be evaluated by measuring fluorescence (e.g., from GFP). […]

[1] = mRNA encapsulation by the LNP (% EE, total mRNA in TX); assay type: physicochemical; conditions: LNP lipid:PEG-1:DSPC:Cholesterol 48:2:11:39, hEPO mRNA
Description: For nanoparticle compositions including an RNA, a QUANT-IT™ RIBOGREEN® RNA assay (Invitrogen Corporation Carlsbad, CA) can be used to evaluate the encapsulation of an RNA by the nanoparticle composition. The samples are diluted to a concentration of approximately 5 μg/mL in a TE buffer solution (10 mM Tris-HCl, 1 mM EDTA, pH 7.5). 50 μL of the diluted samples are transferred to a polystyrene 96 well plate and either 50 μL of TE buffer or 50 μL of a 2% Triton X-100 solution is added to the wells. The plate is incubated at a temperature of 37° C. for 15 minutes. The RIBOGREEN® reagent is diluted 1:100 in TE buffer, and 100 μL of this solution is added to each well. The fluorescence intensity can be measured using a fluorescence plate reader (Wallac Victor 1420 Multilablel Counter; Perkin Elmer, Waltham, MA) at an excitation wavelength of, for example, about 480 nm and an emission wavelength of, for example, about 520 nm. The fluorescence values of the reagent blank are subtracted from that of each of the samples and the percentage of free RNA is determined by dividing the fluorescence intensity of the intact sample (without addition of Triton X-100) by the fluorescence value of the disrupted sample (caused by the addition of Triton X-100).
The efficiency of encapsulation of a therapeutic and/or prophylactic agent describes the amount of therapeutic and/or prophylactic agent that is encapsulated or otherwise associated with an LNP after preparation, relative to the initial amount provided. The encapsulation efficiency is desired to be high (e.g., close to 100%). The encapsulation efficiency may be measured, for example, by comparing the amount of therapeutic and/or prophylactic agent in a solution containing a loaded LNP before and after breaking up the loaded LNP with one or more organic solvents or detergents. Fluorescence may be used to measure the amount of free therapeutic and/or prophylactic agent (e.g., RNA) in a solution. For the loaded LNPs formulated with lipids of the disclosure, the encapsulation efficiency of a therapeutic and/or prophylactic agent is at least 50%, for example 50%, 55%, 60%, 65%, 70%, 75%, 80%, 85%, 90%, 91%, 92%, 93%, 94%, 95%, 96%, 97%, 98%, 99%, or 100%. In some embodiments, the encapsulation efficiency is at least 80%. In some embodiments, the encapsulation efficiency is at least 90%. In some embodiments, the encapsulation efficiency of the therapeutic and/or prophylactic agent is between 80% and 100%.
(§1) LNPs comprising ionizable lipids described herein were formulated according to Table 2 and the following general procedure.
(§2) General procedure for one-pot LNP formation: Lipid stock solutions in ethanol are mixed with mRNA in 25 mM acetate solution at a 3:1 ratio in a microfluidic mixer. The resulting LNPs, which are at approximately pH 5 and 25% EtOH, are buffer exchanged by dialysis into the storage buffer. The LNP solutions are then concentrated by Amicon® and purified by a 0.2 uM sterile filter.

[2] = Osmolality of LNP formulation; assay type: physicochemical; conditions: LNP formulation in 20 mM Tris 8% Sucrose storage buffer
Source text: as §1

[3] = LNP particle size and polydispersity index (PDI); assay type: physicochemical; conditions: LNP lipid:PEG-1:DSPC:Cholesterol 48:2:11:39, hEPO mRNA, 20 mM Tris 8% Sucrose pH 7.4
Description: A Zetasizer Nano ZS (Malvern Instruments Ltd, Malvern, Worcestershire, UK) can be used to determine the particle size, the polydispersity index (PDI) and the zeta potential of the nanoparticle compositions in 1×PBS in determining particle size and 15 mM PBS in determining zeta potential.
LNPs may be characterized by a variety of methods. For example, microscopy (e.g., transmission electron microscopy or scanning electron microscopy) may be used to examine the morphology and size distribution of a nanoparticle composition. Dynamic light scattering or potentiometry (e.g., potentiometric titrations) may be used to measure zeta potentials. Dynamic light scattering may also be utilized to determine particle sizes. Instruments such as the Zetasizer Nano ZS (Malvern Instruments Ltd, Malvern, Worcestershire, UK) may also be used to measure multiple characteristics of a nanoparticle composition, such as particle size, polydispersity index, and zeta potential.
as §1, §2

pH of LNP formulation = assay type: physicochemical; conditions: LNP formulation in 20 mM Tris 8% Sucrose storage buffer
Source text: as §1

[4] = Endotoxin content of LNP formulation; conditions: LNP lipid:PEG-1:DSPC:Cholesterol 48:2:11:39, hEPO mRNA
Source text: as §1

[5] = Table 3A groups 1-8, ratio to L5 LNP
[6] = Table 3B groups 1A-8A, ratio to L5 LNP

Row | Structure (SMILES) | 6 hr protein expression ratio cf. L5 (hEPO protein expression; [5]) | 24 hr protein expression ratio cf. L5 (hEPO protein expression; [5]) | % EE [1] | Osmolality (mOsm/kg) [2] | PDI [3] | Size (nm) [3] | 6 hr protein expression ratio cf. L5 (hEPO protein expression; [6]) | 24 hr protein expression ratio cf. L5 (hEPO protein expression; [6]) | pH (pH of LNP formulation) | Endotoxin (EU/mL) [4] [EU/mL]
1 | CCCCCCCCC(CCCCCCCC)OC(=O)CCCCCCCN(CCCCCCCC(=O)OCCC(CCCC)CCCC)CCCNS(=O)(=O)CC [Compound L2, reference compound] | 0.7 | 0.8 | 95.8% | 315 mOsm/kg | 0.177 | 60.7 nm |  |  |  | 
2 | CCCCCCCCCOC(=O)CCCCCCCN(CCO)CCCCCCCC(=O)OC(CCCCCCCC)CCCCCCCC [Compound L4, reference compound] | 0.1 | 0.1 | 94.8% and 92.6% | 317 mOsm/kg and 311 mOsm/kg |  | 74.9 nm and 104.5 nm | 0.08 | 0.07 | 7.444 | 2.3
3 | CCCCCCCCC(CC)OC(=O)CCCCCCCN(CCCCCCCC(=O)OC(CCCCCCCC)CCCCCCCC)CCCNc1c(NC)c(=O)c1=O (stereo not shown) [Compound L5, reference compound] | 1.0 | 1.0 | 95.2% and 96.1% | 313 mOsm/kg and 320 mOsm/kg | 0.117 and 0.119 | 60.4 nm and 59.9 nm | 1.00 | 1.00 | 7.456 | 2
4 | CCCCCCCCC(CCCCCCCC)OC(=O)CCCCCCCN(CCO)CCCCCCCC(=O)OCCC(CCCC)CCCC [Compound L6, reference compound] |  |  | 96.9% | 321 mOsm/kg | 0.166 | 58.2 nm | 0.94 | 0.84 | 7.468 | 2.3
5 | CCCCCCCCC(CCCCCCCC)OC(=O)CCCCCCCN(CCO)CCCCCCC(C(=O)OCCCCCC)C(=O)OCCCCCC [Compound M1, Dihexyl 2-(6-((8-(heptadecan-9-yloxy)-8-oxooctyl)(2-hydroxyethyl)amino)hexyl)malonate] | 0.9 | 0.9 | 96.9% and 94.1% | 314 mOsm/kg and 320 mOsm/kg | 0.164 and 0.128 | 57.0 nm and 58.7 nm | 1.70 | 1.46 | 7.452 | 2.4
6 | CCCCCCCCOC(=O)C(CCCCCCN(CCO)CCCCCCCC(=O)OC(CCCCCCCC)CCCCCCCC)C(=O)OCCCCCCCC [Compound M2, Dioctyl 2-(6-((8-(heptadecan-9-yloxy)-8-oxooctyl)(2-hydroxyethyl)amino)hexyl)malonate] | 0.3 | 0.3 | 97.9% | 315 mOsm/kg | 0.186 | 58.0 nm |  |  |  | 
7 | CCCCCCCCC(CCCCCCCC)OC(=O)CCCCCCCN(CCCCCCC(C(=O)OCCCCCC)C(=O)OCCCCCC)CCCNc1c(NC)c(=O)c1=O [Compound M3, Dihexyl 2-(6-((8-(heptadecan-9-yloxy)-8-oxooctyl)(3-((2-(methylamino)-3,4-dioxocyclobut-1-en-1-yl)amino)propyl)amino)hexyl)malonate] | 1.0 | 1.2 | 97.8% and 98.3% | 317 mOsm/kg and 318 mOsm/kg | 0.148 and 0.132 | 59.3 nm and 59.1 nm | 2.53 | 2.42 | 7.155 | 2
8 | CCCCCCCCC(CCCCCCCC)OC(=O)CCCCCCCN(CCCCCCC(C(=O)OCCCCCC)C(=O)OCCCCCC)CCCNC(C)=O [Compound M4, Dihexyl 2-(6-((3-acetamidopropyl)(8-(heptadecan-9-yloxy)-8-oxooctyl)amino)hexyl)malonate] |  |  | 92.2% | 321 mOsm/kg | 0.099 | 68.7 nm | 0.34 | 0.36 | 7.450 | 2.6
